Experimental data from patent US20090215845A1, “Fungicidal mixtures” (priority 2005, published 2009).
Where two headings read alike, the source gives them in different places.

Experiments:
Trichurus spiralis = assay: MIC on nutrient agar media against soft-rot pathogen; format: cell-based
Procedure: (§1) The synergism was then determined using the method described by Kull et al. (F. C. Kull, P. C. Eismann, H. D. Sylvestrowicz, R. L. Mayer, Applied Microbiology 9, 538 to 541, 1961). Here, the following relationships apply:
(§2) Qa=concentration of substance A which corresponds to the MIC
(§3) Qb=concentration of substance B which corresponds to the MIC
(§4) QA=concentration of substance A in the concentration of A/B which suppresses microbial growth
(§5) QB=concentration of substance B in the concentration of A/B which suppresses microbial growth
(§6) SI=1 means the activities are additive
Various concentrations of prochloraz (A), tebuconazole (B) and mixtures of the two active compounds mentioned (AB) were tested against the soft-rot pathogen Trichurus spiralis on nutrient agar media. The minimum inhibitory concentration (MIC) refers to the value of the active compound or the active compound mixture in question where no growth could be observed.

Coriolus versicolor = assay: MIC, radial hyphal growth on malt extract peptone nutrient agar; format: cell-based; conditions: Trametes versicolor
Procedure: as §1, §2, §3, §4, §5, §6
Various concentrations of prochloraz (A), tebuconazole (B) and mixtures (AB) of the two active compounds mentioned were tested against the wood-destroying Basidiomycetes Coriolus versicolor. Mycelium pieces were punched out of a colony of the wood-destroying organism and incubated at 26° C. on a nutrient agar which contained malt extract peptone. The radial growth of the hypha with and without added active compound was then compared. The minimum inhibitory concentration (MIC) stated below is the lowest concentration of active compound at which the radial growth is suppressed completely.

[1] = system: microorganisms in biologically active soil; assay: Soil burial of treated cotton sailcloth (DIN ENV 807), tear resistance; conditions: cloth drenched with 800 ppm single active compound in ethanol; 4 weeks in biologically active soil
Procedure: Untreated cotton sailcloth consisting of cellulose (500 g/m^2) was drenched with a solution of 800 ppm of prochloraz (A) and 800 ppm of tebuconazole (B) and a mixture (AB) comprising 200 ppm of prochloraz and 200 ppm of tebuconazole in ethanol. The samples were dried at 23° C. and 50% relative atmospheric humidity for 7 days and incorporated into biologically active soil according to DIN ENV 807. After 4 weeks, tear resistance of the cotton cloth was determined as a measure for the protection against destruction by microorganisms achieved by the active compounds.

blueing fungi = conditions: J. A. Drysdale et al., New Zealand Journal of Forestry Science 1982; cited from earlier work

Row | SMILES | MIC (Trichurus spiralis) [µg/mL] | MIC (Coriolus versicolor) [µg/mL] | tear resistance of the cotton cloth [1] | activity against blueing fungi (blueing fungi) | MIC (Trichurus spiralis; nutrient agar, concentration where no growth could be observed, read-out: MIC) [µg/mL] | MIC (Coriolus versicolor; Coriolus versicolor, 26° C., malt extract peptone agar, lowest concentration at which radial growth is suppressed completely, read-out: MIC) [µg/mL]
1 | CCCN(CCOc1c(Cl)cc(Cl)cc1Cl)C(=O)n1ccnc1 [A, N-propyl-N-[2-(2,4,6-trichlorophenoxy)ethyl]imidazole-1-carboxamide] | 5 | 6 | easy to tear | insufficiently active |  | 
2 | CC(C)(C)C(O)(CCc1ccc(Cl)cc1)Cn1cncn1 (stereo not shown) [B, tebuconazole] |  |  | easy to tear |  | 200 | 0.3
